Data reported in US20240050392A1, “COMPOSITIONS AND METHODS FOR IMPROVED TREATMENT OF PLATINUM-BASED CHEMOTHERAPEUTIC RESISTANT TUMORS” (THE REGENTS OF THE UNIVERSITY OF THE COLORADO, A BODY …, priority 2021, published 2024).

Experiments:
[1] = system: bladder tumor-derived organoids; assay: Tumor-derived organoid drug screening (alamarBlue viability, reseeding); assay type: cell-based, human
Experimental: Three independent organoid models derived from patients that failed between 4 to 6 cycles of neoadjuvant gemcitabine plus cisplatin chemotherapy (FIG. 10A). The organoids mimicked the morphological and genomic characteristics of the tumor from which they were derived (FIG. 10B). These organoids were treated with increasing doses of cisplatin and 20 μM of tosedostat.
Tumor-derived Organoids. Culture of the organoids. Human bladder tissue was obtained from the Erasmus MC Bladder Cancer Center, Rotterdam, the Netherlands. Bladder tumor-derived organoids from biopsies obtained through TURBT or cystectomy. Briefly, bladder tissues were washed with Advanced DMEM/F12 (Gibco) supplemented with 10 mM HEPES (Gibco), 1% GlutaMax (Gibco) and 100 μg/ml primocin (InvivoGen), henceforth Ad+++. Tissue was minced and incubated at 37° C. with the digestion solution (collagenase 2.5 mg/ml in EBSS) and isolated cells were passed through […] strainer (Falcon), washed with Ad+++ and seeded in 50 μl drops of BME (R&D system) containing 10000-15000 cells in 24 well suspension plates (Greiner). Bladder tumor organoids were cultured in a culture medium containing Ad+++ supplemented with 1×B-27 (Gibco), 1.25 mM N-acetylcysteine (Sigma), 10 mM nicotinamide, 20 μM TGFβ receptor inhibitor A83-01, 100 ng/ml recombinant human FGF10 (Peprotech), 25 ng/ml recombinant human FGF7 (Peprotech), 12.5 ng/ml recombinant human FGF2 (Peprotech), 10 μM Y27632 Rho Kinase (ROCK) Inhibitor (Sigma) and conditioned media for recombinant Rspondin (2.5% v/v), and Wnt3A (2.5% v/v). The medium was changed every three days. Organoids were passaged at a 1:3 to 1:6 ratio every 7 days using cell dissociation solution-non enzymatic (Sigma) and plated in fresh BME matrix droplets.
Drug screening. Organoids were collected 7 days after passaging, passed through a […] strainer and 1000 organoids were seeded per well of a 48-well plate in BME matrix droplets. After 24 hours cisplatin (Sigma) resuspended in PBS was added at different concentrations (2, 10, 25, and 50 μM) with or without tosedostat (20 μM) (Tocris) resuspended in DMSO. All wells were adjusted to contain less than 0.7% DMSO. Organoids were cultured for the first 6 days in the presence of drugs followed by drug withdrawal, where organoids were grown in organoid culture media for 10 days. The entire content of the wells in different treatment groups was collected, washed and reseeded after disaggregation in fresh BME, and cultured for 6 days. Cell viability was assayed using alamarBlue (Invitrogen) according to the manufacturer's instructions after 6 days of drug incubation, 10 days of drug withdrawal, and 6 days post reseeding. Viability data was normalized using organoid wells treated with vehicle control.

[2] = system: KU1919-GemCis and KU1919 parental cells; assay: Drug dose response with NPEPPS knockdown or overexpression; assay type: cell-based, human

## N.N.[Cl][Pt][Cl] [cisplatin]
[1]; 2 μM cisplatin alone
  organoid growth after reseeding in new growth conditions: able to re-grow
[1]; cisplatin alone at 25 μM
  organoid killing: all organoids were killed
[2]; KU1919-GemCis cells, stable NPEPPS shRNA knockdown
  effect of NPEPPS knockdown on drug response: preferentially enhanced response
[2]; KU1919 parental lines overexpressing NPEPPS
  effect of NPEPPS overexpression on drug response: increased treatment resistance
